Legend:
Akt = assay: Western blot of phospho Akt (T308, S473) in striatum; parameters: species or system mice; settings: mouse, in vivo
Method: After behavioral testing, mice again received their assigned injection and then, 45 minutes later, were decapitated under anesthesia. Tissue samples were processed as follows. Briefly, the brain was dissected, rapidly frozen on dry ice, and stored at −80° C. Striatal tissue was collected from 100 μm coronal slices cut at the level of striatum using a cryostat (Leica CM1950, Leica Biosystems Inc, Buffalo Groove, Ill.). Striatal samples from the intact and the lesioned hemisphere were separately collected in 150p1 of lysis solution (Totally RNA, Ambion, Austin, Tex.). Care was taken to make sure that the tissue samples were collected from similar regions in all the brain samples analyzed, since there are differences in the expression of GRKs from rostral to caudal CPu. Protein concentration was estimated using Bradford reagent (Bio-Rad, Hercules, Calif.). 200m protein was precipitated with 100% methanol and centrifuged at 10000 g for 10 mins in a table top centrifuge. The pellet was re-suspended in 90% methanol and centrifuged for an additional 10 mins at 10000 g. The supernatant was discarded and the pellet was air dried and dissolved in 400 μL of β-mercaptoethanol containing 2× Laemmli sample buffer (Biorad, Hercules, Calif.), for a final concentration of 0.5 mg/mL. These samples were stored at −80° C. until use. Samples were electrophoresed through 10% polyacrylamide gels and transferred on to Immobilon-P PVDF membranes (Millipore, Bedford, Mass.) and processed. […] Western blots were quantified using band densitometry in Image J software (NIH version). […] Results are represented as group mean±SEM and analyzed using one-way or repeated-measures ANOVA (RM-ANOVA), with post hoc Bonferroni tests. The mouse cylinder test was analyzed with RM-ANOVA, with group (DOPA and DOPA-ranitidine formulations) as a between-group factor and saline vs. DOPA treatment as a within-group factor. AIMs scores were analyzed using the Kruskal Wallis test for pre-testing (DOPA injected animals) and the Mann-Whitney U test for the post-testing sessions (DOPA vs DOPA-ranitidine formulations). […]

GRK6 = assay: Western blot of GRK6 in intact and lesioned striatum; assay type: in vivo, mice; settings: normalized to actin
Method: (§1) After behavioral testing, mice again received their assigned injection and then, 45 minutes later, were decapitated under anesthesia. Tissue samples were processed as follows. Briefly, the brain was dissected, rapidly frozen on dry ice, and stored at −80° C. Striatal tissue was collected from 100 μm coronal slices cut at the level of striatum using a cryostat (Leica CM1950, Leica Biosystems Inc, Buffalo Groove, Ill.). Striatal samples from the intact and the lesioned hemisphere were separately collected in 150p1 of lysis solution (Totally RNA, Ambion, Austin, Tex.). Care was taken to make sure that the tissue samples were collected from similar regions in all the brain samples analyzed, since there are differences in the expression of GRKs from rostral to caudal CPu. […]
(§2) Western blots were quantified using band densitometry in Image J software (NIH version). […] Results are represented as group mean±SEM and analyzed using one-way or repeated-measures ANOVA (RM-ANOVA), with post hoc Bonferroni tests. The mouse cylinder test was analyzed with RM-ANOVA, with group (DOPA and DOPA-ranitidine formulations) as a between-group factor and saline vs. DOPA treatment as a within-group factor. AIMs scores were analyzed using the Kruskal Wallis test for pre-testing (DOPA injected animals) and the Mann-Whitney U test for the post-testing sessions (DOPA vs DOPA-ranitidine formulations). […]

GRK3 = assay: Western blot of GRK3 in intact and lesioned striatum; assay type: in vivo, mice; settings: normalized to actin; formulation and ranitidine groups compared with the DOPA-treated group, Bonferroni post-hoc
Method: as §1, §2

ERK = assay: Western blot of ppERK and total ERK in striatum; assay type: in vivo, mice; settings: 45 minutes after last injection
Method: as §1, §2

Structure (SMILES) | Akt phosphorylation at Ser473 (Akt) | Akt phosphorylation at Thr308 in the lesioned striatum (Akt) | GRK6 in the lesioned hemisphere versus the intact control side (GRK6) | GRK3 in the lesioned hemisphere as % expression of the intact side (GRK3) | ERK phosphorylation (ppERK) in the lesioned hemisphere (ERK)
N[C@@H](Cc1ccc(O)c(O)c1)C(=O)O [L-DOPA, L-3,4-dihydroxyphenylalanine] | not statistically significant | elevated in the lesioned striatum | Only a marginal degree of down regulation | significantly reduced in the lesioned hemisphere | increased
CN/C(=C\[N+](=O)[O-])NCCSCc1ccc(CN(C)C)o1 [Ranitidine, N-(2-[(5-[(dimethylamino)methyl]furan-2-yl)methylthio]ethyl)-N′-methyl-2-nitroethene-1,1-diamine] |  | no effect | enhanced the expression | significantly attenuated | increased

From patent US20190054051A1, “DOPA Formulations for Treatments of Parkinson's Disease” (The Board of Trustees of the Leland Stanford Junior …, priority 2017, published 2019)
